Laboratory results taken from patent US9364554B2, “Extracellular targeted drug conjugates” (priority 2009, dated 2016).
pIC50: −log10 of the molar value. Where two headings read alike, the source gives them in different places.

Experiments:
A549 = experiment: In vitro cell proliferation assay (CellTiter-Glo, 3 days) A549; assay type: cell-based, human; conditions: for pIC50: Homo sapiens; for activity decrease when attached to the PEG24 linker and capped, compared to the free uncoupled agent: Example 15
Method: (§1) In vitro cell proliferation assays. […] All cell lines were maintained in complete media [RPMI medium 1640 supplemented with 10% (wt/vol) fetal bovine serum and Gentamycin (50 μg/ml)]. Cells were plated at a density of 1250 (H460 and A549) or 1825 (HCT15 and MCF7) cells per well of each 384-well white tissue culture treated microtiter plate in 20 uls complete media, and then were grown for 24 hour at 37° C. with 7% CO2 in a humidified incubator before agent/conjugate addition. In a separate 96-well plate, agent and antibody conjugate (in PBS) stocks were serially diluted in complete media at 5× final working concentrations, and 5 ul added to the cells used in the assay. Cells were incubated with the agent/conjugate for 3 days before cell viability testing. Cell viability testing used the CellTiter-Glo luminescent cell viability assay (Promega, Madison, Wis.). IC50 values of the agents to each cell line were determined using GraphPad Prism 5 software.
For the experiment below, α-Fl-CEN10-105 (also termed α-Fl-106), CEN10-105-Cys (also termed PEG24106) and M53-PEG24-CEN09-106 were varied as indicated in FIG. 11. […] All were assayed in the A549 cell proliferation assay. Cells were maintained in complete media [RPMI medium 1640 supplemented with 10% (wt/vol) fetal bovine serum and Gentamycin (50 μg/ml)]. Cells were plated at a density of 1250 per well of a 384-well white tissue culture treated microtiter plate in 20 uls complete media, then were grown for 24 hour at 37° C. with 7% CO2 in a humidified incubator before agent/conjugate addition. In a separate 96-well plate, agent and antibody conjugate (in PBS) stocks were serially diluted in complete media at 5× final working concentrations, and 5 uls added to the cells used in the assay. For the competition assay (M53 Comp) M53 was serially diluted from 500 to 0.11 nM in the presence of 5 nM PEG24-106, and 5 ul of these dilutions were added to cells used in this assay. Cells were incubated with the agent/conjugate for 3 days before cell viability testing. Cell viability testing used the CellTiterGlo luminescent cell viability assay (Promega, Madison, Wis.).
Cytotoxicity of the above EDCs were evaluated in vitro on the NSCLC line A549. Cells were maintained in complete media [RPMI medium 1640 supplemented with 10% (wt/vol) fetal bovine serum and Gentamycin (50 μg/ml)]. Cells were plated at a density of 1250 per well of a 384-well white tissue culture treated microtiter plate in 20 uls complete media, then were grown for 24 hour at 37° C. with 7% CO2 in a humidified incubator before conjugate addition. In a separate 96-well plate, ADC (in PBS) stocks were serially diluted in complete media at 5× final working concentrations, and 5 uls added to the cells used in the assay. Cells were incubated in the presence of the compounds for 72 hrs prior to cell viability testing. Cell viability testing was performed using the CellTiter-Glo luminescent cell viability assay (Promega, Madison, Wis.).
Cytotoxicity of the above compounds were evaluated in vitro on the NSCLC line A549. Cells were maintained in complete media [RPMI medium 1640 supplemented with 10% (wt/vol) fetal bovine serum and Gentamycin (50 μg/ml)]. Cells were plated at a density of 1250 per well of a 384-well white tissue culture treated microtiter plate in 20 uls complete media, then were grown for 24 hour at 37° C. with 7% CO2 in a humidified incubator before agent addition.

A375 = experiment: Cytotoxicity IC50 on A375; assay type: cell-based; conditions: Homo sapiens
Text: (§2) ND indicates IC50 values that could not be determined at the concentrations tested. The presence of the antibody M53's target on the cell surface as determined by M53 cell staining is indicated as Yes/No. The origin of the cell line and disease type for each cell line is also indicated.
Parent CEN09-106, CEN09-104 and CEN10-126 drugs were all linked to antibody M53 via the PEG24 linker as described in Example 5. The intermediate drug-PEG24's were capped with cysteine as described in Example 5. Cytotoxicity of the EDC's and the drug-PEG24 linkers were evaluated in vitro on the NSCLC line A549 and malignant melanoma cell line A375 as described in Example 5.

H460 = experiment: In vitro cell proliferation assay (CellTiter-Glo, 3 days) H460; assay type: cell-based; conditions: Homo sapiens
Method: as §1

A549 cells = experiment: In vitro cell proliferation assay, Example 4 (CellTiter-Glo, 2 days); assay type: cell-based, human
Method: In vitro cell proliferation assays. […] All cell lines were maintained in complete media [RPMI medium 1640 supplemented with 10% (wt/vol) fetal bovine serum and Gentamycin ([…])]. Cells were plated at a density of 5,000 cells per well of each 96-well black tissue culture treated microtiter plate in 95 ul complete media, then were grown for 24 hour at 37° C. with 7% CO2 in a humidified incubator before agent/conjugate addition. In a separate 96-well plate, agent (in DMSO) and antibody conjugate (in PBS) stocks were serially diluted in complete media at 20× final working concentrations, and 5 ul added to the cells used in the assay. Doxorubicin was used as the control to monitor the behavior of the cell lines used. Cells were incubated with the agent/conjugate for 2 days before luminescence reading. Cell viability testing used the CellTiter-Glo luminescent cell viability assay (Promega, Madison, Wis.).

HCT15 = experiment: In vitro cell proliferation assay (CellTiter-Glo, 3 days) HCT15; assay type: cell-based; conditions: Homo sapiens
Method: as §1

MCF7 = experiment: In vitro cell proliferation assay (CellTiter-Glo, 3 days) MCF7; assay type: cell-based; conditions: Homo sapiens
Method: as §1

SKOV3 = experiment: Cytotoxicity IC50 on SKOV3; assay type: cell-based; conditions: Homo sapiens, SK-OV-3; Example 9
Text: as §2

A431 = experiment: Cytotoxicity IC50 on A431; assay type: cell-based; conditions: Homo sapiens, A-431; Example 9
Text: as §2

MALME-3M = experiment: Cytotoxicity IC50 on MALME-3M; assay type: cell-based; conditions: Homo sapiens, Example 9
Text: as §2

MEL2 = experiment: Cytotoxicity IC50 on MEL2; assay type: cell-based; conditions: Homo sapiens, Example 9
Text: as §2

HT29 = experiment: Cytotoxicity IC50 on HT29; assay type: cell-based; conditions: Homo sapiens, HT-29; Example 9
Text: as §2

MB-231 = experiment: Cytotoxicity IC50 on MB-231; assay type: cell-based; conditions: Homo sapiens; Example 9
Text: as §2

MCF10a = experiment: Cytotoxicity IC50 on MCF10a; assay type: cell-based; conditions: Homo sapiens, MCF-10A; Example 9
Text: as §2

[1] = A549, read-out: IC50 A549, Example 15

Compound: CC1=C2C[C@H]3[C@@H](CC=C4C[C@@H](O)CC[C@@]43C)[C@@H]2CC[C@]12O[C@@H]1C[C@H](C)CN(CCCCCCNC(=O)CCOCCOCCOCCOCCOCCOCCOCCOCCOCCOCCOCCOCCOCCOCCOCCOCCOCCOCCOCCOCCOCCOCCOCCOCCNC(=O)CCN3C(=O)C=CC3=O)C1[C@H]2C (stereo partly drawn) [CEN10-130]
- pIC50 (A549; A549, Example 10, working concentrations 0.9 to 1000 uM, read-out: IC50 A549): 3.61

Compound: C[C@]12CCC(=NNC(=O)CN)C=C1CCC1C2CC[C@]2(C)[C@@H](c3ccc(=O)oc3)CC[C@]12O (stereo partly drawn) [CEN09-104, glycinyl hydrazine of scillarenone]
- activity decrease when attached to the PEG24 linker and capped, compared to the free uncoupled agent (A549): ~5 fold
- pIC50 (A549; [1]): 7.04
- pIC50 (A375; A-375, Example 15): 6.64

Compound: N[C@@H](C=O)[C@@H](O)[C@H](O)[C@H](O)CO [GlcNH2, 2-amino-2-deoxy-D-Glucose, reference compound]
- pIC50 (H460; NCI-H460, read-out: IC50 H460): < 3.00
- pIC50 (A549; A549, read-out: IC50 A549, Example 11, 457 nM to 1 mM): < 3.00

Compound: C[C@]12CC[C@H](O[C@@H]3OC(CO)[C@@H](O)[C@H](O)C3N)C=C1CCC1C2CC[C@]2(C)[C@@H](c3ccc(=O)oc3)CC[C@]12O (stereo partly drawn) [CEN10-126, scillarenin-2-deoxy-2-amino-β-D-glucopyranoside]
- activity decrease when attached to the PEG24 linker and capped, compared to the free uncoupled agent (A549): ~300 fold
- pIC50 (A549; [1]): 8.89

Compound: scillarenin-4-amino-4-deoxy-L-ribopyranoside [CEN09-107]
- activity of conjugate compared with free agent (in words) (A549 cells; A549, FIGS. 3-6): more active when not conjugated to L15

Compound: CC1=C2C[C@H]3[C@@H](CC=C4C[C@@H](O)CC[C@@]43C)[C@@H]2CC[C@]12O[C@@H]1C[C@H](C)CN[C@H]1[C@H]2C [cyclopamine, Cyclopamine, reference compound]
- pIC50 (A549; A549, read-out: IC50 A549): 3.41

Compound: scillarenin neo-4-amino-4-deoxy-L-xylopyranoside [CEN08-243]
- A549 cell cytotoxicity (in words) (A549 cells; within the testing concentration range, antibodies alone = reduced antibody with linker, no agent): display cytotoxic activity

Compound: C[C@]12CC[C@H](OC3OC[C@H](N)[C@@H](O)[C@@H]3O)C=C1CCC1C2CC[C@]2(C)[C@@H](c3ccc(=O)oc3)CC[C@]12O (stereo partly drawn) [CEN09-106, Scillarenin-4-amino-4-deoxy-L-xylopyranoside]
- pIC50 (H460; NCI-H460, 72 h, read-out: IC50 H460): 8.88
- pIC50 (H460; NCI-H460, read-out: IC50 H460): 8.80
- pIC50 (A549; A549, 72 h, Example 14, cysteine-capped linker forms, A549, 72 hrs): 9.34
- pIC50 (A549; A549, 72 h, read-out: IC50 A549, 3 days, CellTiter-Glo): 9.25
- pIC50 (A549; A549, read-out: IC50 A549, Example 9): 9.15
- pIC50 (A549; [1]): 9.30
- pIC50 (HCT15; HCT-15, 72 h, read-out: IC50 HCT15): 8.63
- pIC50 (HCT15; HCT-15, read-out: IC50 HCT15): 8.64
- pIC50 (MCF7; MCF7, 72 h, read-out: IC50 MCF7): 8.73
- pIC50 (MCF7; MCF7, read-out: IC50 MCF7): 8.59
- pIC50 (SKOV3): 8.28
- pIC50 (A431): 8.70
- pIC50 (A375; A-375, Example 9): 8.49
- pIC50 (A375; A-375, Example 15): 8.85
- pIC50 (MALME-3M): 8.27
- pIC50 (MEL2): 8.37
- pIC50 (HT29): 8.51
- pIC50 (MB-231): 8.15
- pIC50 (MCF10a): 8.18
